pIC50: −log10 of the molar value.

A word on the pIC50: it is −log10 of the IC50, conventionally taken in molar units.

This assay in a line: Inhibition of recombinant human IL-17A/IL-17AR protein-protein interaction using TMB substrate compound added on IL17A precoated plate and followed by IL-17AR addition by ELISA. On the technique in general: ELISA stands for enzyme-linked immunosorbent assay.
Regarding `CO[C@]1(C)C[C@H](O[C@H]2[C@H](C)[C@@H](O[C@@H]3O[C@H](C)C[C@H](N(C)C)[C@H]3O)[C@](C)(O)C[C@@H](C)CN(C)C(=O)C[C@@H](Cc3ccc(NC(=O)[C@H](Cc4ccccc4Cl)NC(=O)Cc4ccccc4)cc3)NC(=O)[C@@H](C(C)C)CNC(=O)[C@@H]2C)O[C@@H](C)[C@@H]1O`, the pIC50 is 4.61.
As for `CO[C@]1(C)C[C@H](O[C@H]2[C@H](C)[C@@H](O[C@@H]3O[C@H](C)C[C@H](N(C)C)[C@H]3O)[C@](C)(O)C[C@@H](C)CN(C)C(=O)[C@@H](Cc3ccc(NC(=O)[C@H](Cc4ccccc4Cl)NC(=O)Cc4ccccc4)cc3)NC(=O)[C@@H](C(C)C)CNC(=O)[C@@H]2C)O[C@@H](C)[C@@H]1O`, the figure is under 4.52.
In the case of `CO[C@]1(C)C[C@H](O[C@H]2[C@H](C)[C@@H](O[C@@H]3O[C@H](C)C[C@H](N(C)C)[C@H]3O)[C@](C)(O)C[C@@H](C)CN(C)C(=O)[C@@H](Cc3ccc(NC(=O)[C@H](Cc4ccccc4Cl)NC(=O)Cc4ccccc4)cc3)NC(=O)C[C@@H](C(C)C)NC(=O)[C@@H]2C)O[C@@H](C)[C@@H]1O` it was under 4.52; in that of `CO[C@]1(C)C[C@H](O[C@H]2[C@H](C)[C@@H](O[C@@H]3O[C@H](C)C[C@H](N(C)C)[C@H]3O)[C@](C)(O)C[C@@H](C)CN(C)C(=O)C[C@@H](Cc3ccc(NC(=O)[C@H](Cc4ccccc4Cl)NC(=O)Cc4cccc(C#N)c4)cc3)NC(=O)[C@H](C(C)C)NC(=O)[C@@H]2C)O[C@@H](C)[C@@H]1O`, 6.33; in that of `CO[C@]1(C)C[C@H](O[C@H]2[C@H](C)[C@@H](O[C@@H]3O[C@H](C)C[C@H](N(C)C)[C@H]3O)[C@](C)(O)C[C@@H](C)CN(C)C(=O)[C@H](C(C)C)NC(=O)C[C@H](Cc3ccc(NC(=O)[C@H](Cc4ccccc4Cl)NC(=O)Cc4ccccc4)cc3)NC(=O)[C@@H]2C)O[C@@H](C)[C@@H]1O`, under 4.52.
As for `CO[C@]1(C)C[C@H](O[C@H]2[C@H](C)[C@@H](O[C@@H]3O[C@H](C)C[C@H](N(C)C)[C@H]3O)[C@](C)(O)C[C@@H](C)CN(C)C(=O)C[C@@H](Cc3ccc(NC(=O)[C@H](Cc4ccccc4Cl)NC(=O)NCc4ccc(F)cc4)cc3)NC(=O)[C@H](C(C)C)NC(=O)[C@@H]2C)O[C@@H](C)[C@@H]1O`, the figure is 6.75; as for `CO[C@]1(C)C[C@H](O[C@H]2[C@H](C)[C@@H](O[C@@H]3O[C@H](C)C[C@H](N(C)C)[C@H]3O)[C@](C)(O)C[C@@H](C)CN(C)C(=O)C[C@@H](Cc3ccc(NC(=O)[C@H](Cc4ccccc4Cl)NC(=O)Nc4cccc(F)c4)cc3)NC(=O)[C@H](C(C)C)NC(=O)[C@@H]2C)O[C@@H](C)[C@@H]1O`, 6.26; as for `CO[C@]1(C)C[C@H](O[C@H]2[C@H](C)[C@@H](O[C@@H]3O[C@H](C)C[C@H](N(C)C)[C@H]3O)[C@](C)(O)C[C@@H](C)CN(C)C(=O)C[C@@H](Cc3ccc(NC(=O)[C@H](Cc4ccccc4Cl)NC(=O)Nc4ccc(F)cc4)cc3)NC(=O)[C@H](C(C)C)NC(=O)[C@@H]2C)O[C@@H](C)[C@@H]1O`, 6.49.
For `CO[C@]1(C)C[C@H](O[C@H]2[C@H](C)[C@@H](O[C@@H]3O[C@H](C)C[C@H](N(C)C)[C@H]3O)[C@](C)(O)C[C@@H](C)CN(C)C(=O)[C@H](Cc3ccc(NC(=O)[C@H](Cc4ccccc4Cl)NC(=O)Cc4ccccc4)cc3)NC(=O)[C@@H](C(C)C)NC(=O)[C@@H]2C)O[C@@H](C)[C@@H]1O`, the pIC50 is 5.85.
In the case of `CO[C@]1(C)C[C@H](O[C@H]2[C@H](C)[C@@H](O[C@@H]3O[C@H](C)C[C@H](N(C)C)[C@H]3O)[C@](C)(O)C[C@@H](C)CN(C)C(=O)C[C@@H](Cc3ccc(NC(=O)[C@H](Cc4ccccc4Cl)NC(=O)C(C)c4ccccc4)cc3)NC(=O)[C@H](C(C)C)NC(=O)[C@@H]2C)O[C@@H](C)[C@@H]1O` (stereo partly specified) it was 6.61.
As for `CO[C@]1(C)C[C@H](O[C@H]2[C@H](C)[C@@H](O[C@@H]3O[C@H](C)C[C@H](N(C)C)[C@H]3O)[C@](C)(O)C[C@@H](C)CN(C)C(=O)[C@H](C(C)C)NC(=O)C[C@@H](Cc3ccc(NC(=O)[C@H](Cc4ccccc4Cl)NC(=O)Cc4ccccc4)cc3)NC(=O)[C@@H]2C)O[C@@H](C)[C@@H]1O`, the figure is under 4.52; as for `COc1ccc(C2(C(=O)N[C@@H](Cc3ccccc3Cl)C(=O)Nc3ccc(C[C@@H]4CC(=O)N(C)C[C@H](C)C[C@@](C)(O)[C@H](O[C@@H]5O[C@H](C)C[C@H](N(C)C)[C@H]5O)[C@@H](C)[C@H](O[C@H]5C[C@@](C)(OC)[C@@H](O)[C@H](C)O5)[C@@H](C)C(=O)N[C@@H](C(C)C)C(=O)N4)cc3)CC2)cc1`, 5.27; as for `CO[C@]1(C)C[C@H](O[C@H]2[C@H](C)[C@@H](O[C@@H]3O[C@H](C)C[C@H](N(C)C)[C@H]3O)[C@](C)(O)C[C@@H](C)CN(C)C(=O)C[C@@H](Cc3ccc(NC(=O)[C@H](Cc4ccccc4Cl)NC(=O)Cc4ccccc4)cc3)NC(=O)[C@@H](C)NC(=O)[C@@H]2C)O[C@@H](C)[C@@H]1O`, under 4.52.
In the case of `CO[C@]1(C)C[C@H](O[C@H]2[C@H](C)[C@@H](O[C@@H]3O[C@H](C)C[C@H](N(C)C)[C@H]3O)[C@](C)(O)C[C@@H](C)CN(C)C(=O)C[C@@H](Cc3ccc(NC(=O)[C@H](Cc4ccccc4Cl)NC(=O)Nc4ccccc4F)cc3)NC(=O)[C@H](C(C)C)NC(=O)[C@@H]2C)O[C@@H](C)[C@@H]1O` it was 7.52.
Consider `CO[C@]1(C)C[C@H](O[C@H]2[C@H](C)[C@@H](O[C@@H]3O[C@H](C)C[C@H](N(C)C)[C@H]3O)[C@](C)(O)C[C@@H](C)CN(C)C(=O)C[C@@H](Cc3ccc(NC(=O)[C@H](Cc4ccccc4Cl)NC(=O)Cc4ccccc4F)cc3)NC(=O)[C@H](C(C)C)NC(=O)[C@@H]2C)O[C@@H](C)[C@@H]1O`, for which the pIC50 was 6.70.
As for `CO[C@]1(C)C[C@H](O[C@H]2[C@H](C)[C@@H](O[C@@H]3O[C@H](C)C[C@H](N(C)C)[C@H]3O)[C@](C)(O)C[C@@H](C)CN(C)C(=O)C[C@@H](Cc3ccc(NC(=O)[C@H](Cc4ccccc4Cl)NC(=O)Cc4cccc(S(C)(=O)=O)c4)cc3)NC(=O)[C@H](C(C)C)NC(=O)[C@@H]2C)O[C@@H](C)[C@@H]1O`, the figure is 5.80; as for `CO[C@]1(C)C[C@H](O[C@H]2[C@H](C)[C@@H](O[C@@H]3O[C@H](C)C[C@H](N(C)C)[C@H]3O)[C@](C)(O)C[C@@H](C)CN(C)C(=O)C[C@@H](Cc3ccc(NC(=O)[C@H](Cc4ccccc4Cl)NC(=O)Cc4ccccc4)cc3)NC(=O)[C@H](C3CC3)NC(=O)[C@@H]2C)O[C@@H](C)[C@@H]1O`, 5.58.
`CO[C@]1(C)C[C@H](O[C@H]2[C@H](C)[C@@H](O[C@@H]3O[C@H](C)C[C@H](N(C)C)[C@H]3O)[C@](C)(O)C[C@@H](C)CN(C)C(=O)C[C@@H](Cc3ccc(NC(=O)[C@H](Cc4ccccc4Cl)NC(=O)C(O)c4ccccc4)cc3)NC(=O)[C@H](C(C)C)NC(=O)[C@@H]2C)O[C@@H](C)[C@@H]1O` (stereo partly specified): the pIC50 was 5.93.
In the case of `CO[C@]1(C)C[C@H](O[C@H]2[C@H](C)[C@@H](O[C@@H]3O[C@H](C)C[C@H](N(C)C)[C@H]3O)[C@](C)(O)C[C@@H](C)CN(C)C(=O)C[C@@H](Cc3ccc(NC(=O)[C@H](Cc4ccccc4Cl)NC(=O)Cc4ccccc4)cc3)NC(=O)[C@@H]3CCC[C@H]3NC(=O)[C@@H]2C)O[C@@H](C)[C@@H]1O` it was 5.23; in that of `CO[C@]1(C)C[C@H](O[C@H]2[C@H](C)[C@@H](O[C@@H]3O[C@H](C)C[C@H](N(C)C)[C@H]3O)[C@](C)(O)C[C@@H](C)CN(C)C(=O)C[C@@H](Cc3ccc(NC(=O)[C@H](Cc4ccccc4Cl)NC(=O)OCc4ccccc4)cc3)NC(=O)[C@H](C(C)C)NC(=O)[C@@H]2C)O[C@@H](C)[C@@H]1O`, 7.23.
In the case of `CO[C@]1(C)C[C@H](O[C@H]2[C@H](C)[C@@H](O[C@@H]3O[C@H](C)C[C@H](N(C)C)[C@H]3O)[C@](C)(O)C[C@@H](C)CN(C)C(=O)C[C@@H](Cc3ccc(NC(=O)[C@H](Cc4ccccc4Cl)NC(=O)Cc4ccc(S(C)(=O)=O)cc4)cc3)NC(=O)[C@H](C(C)C)NC(=O)[C@@H]2C)O[C@@H](C)[C@@H]1O` it was 6.02; in that of `CO[C@]1(C)C[C@H](O[C@H]2[C@H](C)[C@@H](O[C@@H]3O[C@H](C)C[C@H](N(C)C)[C@H]3O)[C@](C)(O)C[C@@H](C)CN(C)C(=O)C[C@@H](Cc3ccc(NC(=O)[C@H](Cc4ccccc4Cl)NC(=O)Cc4ccccc4)cc3)NC(=O)[C@H](C)NC(=O)[C@@H]2C)O[C@@H](C)[C@@H]1O`, 4.82; in that of `CO[C@]1(C)C[C@H](O[C@H]2[C@H](C)[C@@H](O[C@@H]3O[C@H](C)C[C@H](N(C)C)[C@H]3O)[C@](C)(O)C[C@@H](C)CN(C)C(=O)C[C@@H](Cc3ccc(NC(=O)[C@H](Cc4ccccc4Cl)NC(=O)NCc4ccccc4F)cc3)NC(=O)[C@H](C(C)C)NC(=O)[C@@H]2C)O[C@@H](C)[C@@H]1O`, 6.46.
As for `CO[C@]1(C)C[C@H](O[C@H]2[C@H](C)[C@@H](O[C@@H]3O[C@H](C)C[C@H](N(C)C)[C@H]3O)[C@](C)(O)C[C@@H](C)CN(C)C(=O)[C@@H](C(C)C)NC(=O)C[C@@H](Cc3ccc(NC(=O)[C@H](Cc4ccccc4Cl)NC(=O)Cc4ccccc4)cc3)NC(=O)[C@@H]2C)O[C@@H](C)[C@@H]1O`, the figure is under 4.52.
With `CO[C@]1(C)C[C@H](O[C@H]2[C@H](C)[C@@H](O[C@@H]3O[C@H](C)C[C@H](N(C)C)[C@H]3O)[C@](C)(O)C[C@@H](C)CN(C)C(=O)C[C@@H](Cc3ccc(NC(=O)[C@H](Cc4ccccc4Cl)NC(=O)Cc4ccccc4)cc3)NC(=O)[C@@H]3CCCN3C(=O)[C@@H]2C)O[C@@H](C)[C@@H]1O`, the pIC50 was under 4.52.
As for `CO[C@]1(C)C[C@H](O[C@H]2[C@H](C)[C@@H](O[C@@H]3O[C@H](C)C[C@H](N(C)C)[C@H]3O)[C@](C)(O)C[C@@H](C)CN(C)C(=O)C[C@@H](Cc3ccc(NC(=O)[C@H](Cc4ccccc4Cl)NC(=O)Cc4cccc(F)c4)cc3)NC(=O)[C@H](C(C)C)NC(=O)[C@@H]2C)O[C@@H](C)[C@@H]1O`, the figure is 7.10.

The values are drawn from ChEMBL document CHEMBL5033997, “Macrolide Inspired Macrocycles as Modulators of the IL-17A/IL-17RA Interaction” (J Med Chem, 2021).
